Results from US11597727B2 (THE REGENTS OF THE UNIVERSITY OF CALIFORNIA, priority 2018, dated 2023).

Biological target: integrin α2β1 (Homo sapiens, UniProt P05556+P17301)
Assay: HT 1080 cell adhesion assay on rat tail collagen I
Assay type: cell-based
Parameters: HT1080 (human fibrosarcoma) cells (or human airway smooth muscle cells) were detached and resuspended in serum-free DMEM; endogenous in cells; host or cells: HT1080 human fibrosarcoma cells
Settings: HT1080 (human fibrosarcoma) cells on rat tail collagen I, absorbance at 595 nm, triplicate; read-out: IC50s from HT 1080 Cell adhesion assay
Experimental: Cell adhesion Assay: Ninety-six-well flat-bottomed tissue culture plates were coated with rat tail collagen I for 1 hour at 37° C. After incubation, wells were blocked with 1% BSA at 37° C. for 1 hour. Control wells were filled with 1% BSA. HT1080 (human fibrosarcoma) cells (or human airway smooth muscle cells) were detached and resuspended in serum-free DMEM. Cells were incubated with anti-integrin alpha2 antibody control or 10-fold dilutions of each compound with a starting concentration of 10 uM for 15 minutes at 4° C. before plating. The plates were centrifuged at 10 g for 5 minutes before incubation for 1 hour at 37° C. in humidified 5% CO2. Nonadherent cells were removed by centrifugation (top side down) at 10 g for 5 minutes. Attached cells were stained with 0.5% crystal violet, and the wells were washed with PBS. The relative number of cells in each well was evaluated after solubilization in 40 μl of 2% Triton X-100 by measuring absorbance at 595 nm in a microplate reader. All determinations were carried out in triplicate.

Sequence of integrin α2β1 (P17301 30-1181): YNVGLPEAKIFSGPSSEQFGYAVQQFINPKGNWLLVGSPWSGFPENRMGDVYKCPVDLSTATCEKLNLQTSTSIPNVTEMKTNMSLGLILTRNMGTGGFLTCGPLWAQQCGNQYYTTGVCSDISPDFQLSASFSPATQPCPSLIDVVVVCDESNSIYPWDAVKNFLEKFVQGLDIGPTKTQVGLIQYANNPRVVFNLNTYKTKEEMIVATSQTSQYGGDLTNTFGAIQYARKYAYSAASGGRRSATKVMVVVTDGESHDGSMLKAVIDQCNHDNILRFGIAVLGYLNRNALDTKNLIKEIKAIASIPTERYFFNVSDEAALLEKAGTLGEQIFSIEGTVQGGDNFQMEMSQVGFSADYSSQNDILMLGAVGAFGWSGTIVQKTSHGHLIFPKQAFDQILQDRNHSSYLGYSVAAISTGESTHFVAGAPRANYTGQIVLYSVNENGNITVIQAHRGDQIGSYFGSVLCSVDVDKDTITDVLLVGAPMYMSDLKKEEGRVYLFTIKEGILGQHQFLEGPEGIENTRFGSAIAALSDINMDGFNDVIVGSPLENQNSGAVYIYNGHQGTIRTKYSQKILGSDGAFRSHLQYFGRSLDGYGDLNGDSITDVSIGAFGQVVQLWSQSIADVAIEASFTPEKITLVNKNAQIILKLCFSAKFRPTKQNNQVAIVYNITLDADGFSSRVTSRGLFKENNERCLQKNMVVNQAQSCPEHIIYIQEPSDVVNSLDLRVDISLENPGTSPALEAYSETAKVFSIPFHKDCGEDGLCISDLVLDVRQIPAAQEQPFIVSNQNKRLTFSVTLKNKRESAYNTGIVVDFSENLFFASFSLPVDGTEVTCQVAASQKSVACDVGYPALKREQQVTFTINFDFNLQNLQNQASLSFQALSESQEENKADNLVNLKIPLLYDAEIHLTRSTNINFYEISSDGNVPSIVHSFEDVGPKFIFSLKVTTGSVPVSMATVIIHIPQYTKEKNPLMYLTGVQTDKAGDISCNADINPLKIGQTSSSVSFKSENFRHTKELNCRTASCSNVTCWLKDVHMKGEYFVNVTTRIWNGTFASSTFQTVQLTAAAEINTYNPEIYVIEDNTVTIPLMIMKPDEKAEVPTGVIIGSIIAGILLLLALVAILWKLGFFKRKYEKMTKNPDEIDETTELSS
Sequence of integrin α2β1 (P05556 21-798): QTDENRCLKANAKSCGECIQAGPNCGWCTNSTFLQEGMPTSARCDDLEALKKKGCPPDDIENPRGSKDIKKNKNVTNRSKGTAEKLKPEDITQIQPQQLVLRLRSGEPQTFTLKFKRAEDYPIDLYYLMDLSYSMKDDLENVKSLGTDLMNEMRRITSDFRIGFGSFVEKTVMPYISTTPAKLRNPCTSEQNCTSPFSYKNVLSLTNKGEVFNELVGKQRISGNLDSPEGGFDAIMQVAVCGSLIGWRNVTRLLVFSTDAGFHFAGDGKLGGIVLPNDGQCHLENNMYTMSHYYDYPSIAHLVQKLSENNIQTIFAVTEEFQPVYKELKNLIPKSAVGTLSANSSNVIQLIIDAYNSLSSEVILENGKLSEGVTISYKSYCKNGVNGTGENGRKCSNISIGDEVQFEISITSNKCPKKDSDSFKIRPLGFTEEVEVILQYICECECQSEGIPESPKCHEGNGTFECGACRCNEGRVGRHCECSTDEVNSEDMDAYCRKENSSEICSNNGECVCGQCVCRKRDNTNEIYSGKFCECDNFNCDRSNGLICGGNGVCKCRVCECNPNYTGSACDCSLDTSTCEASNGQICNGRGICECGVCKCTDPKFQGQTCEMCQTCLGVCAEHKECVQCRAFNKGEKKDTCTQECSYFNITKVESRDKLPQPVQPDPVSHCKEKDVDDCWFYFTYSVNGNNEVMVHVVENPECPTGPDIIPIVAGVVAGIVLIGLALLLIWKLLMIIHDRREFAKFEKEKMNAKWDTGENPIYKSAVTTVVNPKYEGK

| Structure (SMILES) | IC50 |
| --- | --- |
| O=C(NCC1CC2(CCC2)C1)NC[C@H](NC(=O)c1c(Cl)cccc1Cl)C(=O)O [A2-178, (S)-2-(2,6-dichlorobenzamido)-3-(3-(spiro[3.3]heptan-2-ylmethyl)ureido)propanoic acid] | 10 to 100 µM |
| C[C@@H](NC(=O)NC[C@H](NC(=O)c1c(Cl)cccc1Cl)C(=O)O)c1ccccc1 [KZ-1-12, (S)-2-(2,6-dichlorobenzamido)-3-(3-((R)-1-phenylethyl)ureido)propanoic acid] | 10 to 100 µM |
| O=C(NC[C@H](NC(=O)c1c(Cl)cccc1Cl)C(=O)O)NC12CC3CC(CC(O)(C3)C1)C2 [A2-144, (S)-2-(2,6-dichlorobenzamido)-3-(3-(3-hydroxyadamantan-1-yl)ureido)propanoic acid] | 10 to 100 µM |
| O=C(NC[C@H](NC(=O)c1c(Cl)cccc1Cl)C(=O)O)NC(c1ccccc1)c1ccccc1 [A2-127, (S)-3-(3-benzhydrylureido)-2-(2,6-dichlorobenzamido)propanoic acid] | 10 to 100 µM |
| O=C(NCCC1C2CC3CC(C2)CC1C3)NC[C@H](NC(=O)c1c(Cl)cccc1Cl)C(=O)O (stereo partly shown) [A2-134] | 10 to 100 µM |
| CC(C)CC(=O)N[C@@H](CNC(=O)NCc1ccccc1)C(=O)O [A2-37, (S)-3-(3-benzylureido)-2-(3-methylbutanamido)propanoic acid] | > 100 µM |
| O=C(NCc1ccccc1)NC[C@H](NC(=O)c1c(F)cccc1Br)C(=O)O [A2-36, (S)-3-(3-benzylureido)-2-(2-bromo-6-fluorobenzamido)propanoic acid] | 10 to 100 µM |
| COc1ccc(CNC(=O)NC[C@H](NC(=O)c2c(Cl)cccc2Cl)C(=O)O)cc1 [KZ-1-20, (S)-2-(2,6-dichlorobenzamido)-3-(3-(4-methoxybenzyl)ureido)propanoic acid] | > 100 µM |
| O=C(NCCC12CC3CC(CC(C3)C1)C2)NC[C@H](NC(=O)c1c(Cl)cccc1Cl)C(=O)O [A2-154, (S)-3-(3-(2-(adamantan-1-yl)ethyl)ureido)-2-(2,6-dichlorobenzamido)propanoic acid] | 10 to 100 µM |
| Cc1ccc(CNC(=O)NC[C@H](NC(=O)c2c(Cl)cccc2Cl)C(=O)O)cc1 [KZ-1-9, (S)-2-(2,6-dichlorobenzamido)-3-(3-(4-methylbenzyl)ureido)propanoic acid] | > 100 µM |
| O=C(NC[C@H](NC(=O)c1c(Cl)cccc1Cl)C(=O)O)NC12CC3CC(C1)CC(C(F)(F)F)(C3)C2 [A2-131, (S)-2-(2,6-dichlorobenzamido)-3-(3-(3-(trifluoromethyl)adamantan-1-yl)ureido)propanoic acid] | 10 to 100 µM |
| O=C(NC[C@H](NC(=O)c1c(Cl)cccc1Cl)C(=O)O)NC12CC3CC(CC1C3)C2 [A2-145, (2S)-2-(2,6-dichlorobenzamido)-3-(3-(hexahydro-2,5-methanopentalen-3a(1H)-yl)ureido)propanoic acid] | 10 to 100 µM |
| Cc1cccc(CNC(=O)NC[C@H](NC(=O)c2c(Cl)cccc2Cl)C(=O)O)c1 [KZ-1-16, (S)-2-(2,6-dichlorobenzamido)-3-(3-(3-methylbenzyl)ureido)propanoic acid] | 10 to 100 µM |
| CC12CC3CC(C1)CC(NC(=O)NC[C@H](NC(=O)c1c(Cl)cccc1Cl)C(=O)O)(C3)C2 [A2-157, (S)-2-(2,6-dichlorobenzamido)-3-(3-(3-methyladamantan-1-yl)ureido)propanoic acid] | 10 to 100 µM |
| CC1(C)C2CCC1(C)C(NC(=O)NC[C@H](NC(=O)c1c(Cl)cccc1Cl)C(=O)O)C2 (stereo partly drawn) [A2-171, (2S)-2-(2,6-dichlorobenzamido)-3-(3-(1,7,7-trimethylbicyclo[2.2.1]heptan-2-yl)ureido)propanoic acid] | < 10 µM |
| O=C(NC[C@H](NC(=O)c1c(Cl)cccc1Cl)C(=O)O)N[C@@H]1CCc2ccccc21 [A2-85, (S)-2-(2,6-dichlorobenzamido)-3-(3-((R)-2,3-dihydro-1H-inden-1-yl)ureido)propanoic acid] | < 10 µM |

| Structure (SMILES) | IC50 |
| --- | --- |
| CCC12CC3CC(C1)CC(NC(=O)NC[C@H](NC(=O)c1c(Cl)cccc1Cl)C(=O)O)(C3)C2 [A2-129, (S)-2-(2,6-dichlorobenzamido)-3-(3-(3-ethyladamantan-1-yl)ureido)propanoic acid] | 10 to 100 µM |
| O=C(NC[C@H](NC(=O)c1c(Cl)cccc1Cl)C(=O)O)Nc1ccccc1 [KZ-1-25, (S)-2-(2,6-dichlorobenzamido)-3-(3-phenylureido)propanoic acid] | > 100 µM |
| O=C(NCc1ccc(Cl)cc1)NC[C@H](NC(=O)c1c(Cl)cccc1Cl)C(=O)O [KZ-1-26, (S)-3-(3-(4-chlorobenzyl)ureido)-2-(2,6-dichlorobenzamido)propanoic acid] | > 100 µM |
| CC12CC3CC(C)(C1)CC(NC(=O)NC[C@H](NC(=O)c1c(Cl)cccc1Cl)C(=O)O)(C3)C2 [A2-128, (S)-2-(2,6-dichlorobenzamido)-3-(3-(3,5-dimethyladamantan-1-yl)ureido)propanoic acid] | 10 to 100 µM |
| COc1cccc(CNC(=O)NC[C@H](NC(=O)c2c(Cl)cccc2Cl)C(=O)O)c1 [KZ-1-15, (S)-2-(2,6-dichlorobenzamido)-3-(3-(3-methoxybenzyl)ureido)propanoic acid] | 10 to 100 µM |
| O=C(NCc1ccco1)NC[C@H](NC(=O)c1c(Cl)cccc1Cl)C(=O)O [KZ-1-17, (S)-2-(2,6-dichlorobenzamido)-3-(3-(furan-2-ylmethyl)ureido)propanoic acid] | > 100 µM |
| O=C(NC[C@H](NC(=O)c1c(Cl)cccc1Cl)C(=O)O)NCC12CC3CC(CC(O)(C3)C1)C2 [A2-153] | 10 to 100 µM |
| O=C(NC[C@H](NC(=O)c1c(Cl)cccc1Cl)C(=O)O)NC12CC3CC(CC(C3)C1)C2 [A2-87] | 10 to 100 µM |
| O=C(NC[C@H](NC(=O)c1c(Cl)cccc1Cl)C(=O)O)NC1C2CC3CC(C2)CC1C3 (stereo partly drawn) [A2-130, (S)-3-(3-(adamantan-2-yl)ureido)-2-(2,6-dichlorobenzamido)propanoic acid] | < 10 µM |
| O=C(NCC1CC2CCC1C2)NC[C@H](NC(=O)c1c(Cl)cccc1Cl)C(=O)O (stereo partly drawn) [A2-174, (2S)-3-(3-(bicyclo[2.2.1]heptan-2-ylmethyl)ureido)-2-(2,6-dichlorobenzamido)propanoic acid] | 10 to 100 µM |
| O=C(NCc1ccc(C(F)(F)F)cc1)NC[C@H](NC(=O)c1c(Cl)cccc1Cl)C(=O)O [KZ-1-30, (S)-2-(2,6-dichlorobenzamido)-3-(3-(4-(trifluoromethyl)benzyl)ureido)propanoic acid] | > 100 µM |
| O=C(CC1CCCCC1)N[C@@H](CNC(=O)NCc1ccccc1)C(=O)O [A2-64, (S)-3-(3-benzylureido)-2-(2-cyclohexylacetamido)propanoic acid] | > 100 µM |
| O=C(NCc1ccccc1)NC[C@H](NC(=O)c1c(C(F)(F)F)cccc1C(F)(F)F)C(=O)O [A2-27, (S)-3-(3-benzylureido)-2-(2,6-bis(trifluoromethyl)benzamido)propanoic acid] | 10 to 100 µM |
| O=C(NC[C@H](NC(=O)c1c(Cl)cccc1Cl)C(=O)O)NC1CCc2ccccc2C1 (stereo partly drawn) [A2-126, (2S)-2-(2,6-dichlorobenzamido)-3-(3-(1,2,3,4-tetrahydronaphthalen-2-yl)ureido)propanoic acid] | < 10 µM |
| O=C(NCc1ccsc1)NC[C@H](NC(=O)c1c(Cl)cccc1Cl)C(=O)O [KZ-1-38, (S)-2-(2,6-dichlorobenzamido)-3-(3-(thiophen-3-ylmethyl)ureido)propanoic acid] | 10 to 100 µM |
